“Also recorded” adds a separate entry of the source.
Assays:
serum testosterone = assay: Example 8: serum testosterone in men with advanced prostate cancer, versus leuprolide acetate; type: in vivo, human; details: for Testosterone Mean (Std Dev) / Testosterone Median / Median testosterone: Leuprorelin Q12W
Excerpt: Eligible men were aged ≥18 years with a histologically confirmed diagnosis of prostate adenocarcinoma, and were candidates for ADT for the management of hormone-sensitive prostate cancer with one of the following clinical disease states: advanced localized disease not suitable for primary surgical or radiation therapy; evidence of PSA biochemical or clinical relapse following primary surgery or radiation therapy of curative intent; or newly diagnosed metastatic disease that was asymptomatic and without visceral involvement. […] Patients with advanced, localized MON1 or M1 disease with clinically significant symptoms or visceral involvement, who required immediate GnRH therapy, chemotherapy, or radiation therapy were not eligible for the trial.
Serum testosterone levels were measured at each visit.

PSA = assay: Example 8: PSA response; type: in vivo, human
Excerpt: Eligible men were aged ≥18 years with a histologically confirmed diagnosis of prostate adenocarcinoma, and were candidates for ADT for the management of hormone-sensitive prostate cancer with one of the following clinical disease states: advanced localized disease not suitable for primary surgical or radiation therapy; evidence of PSA biochemical or clinical relapse following primary surgery or radiation therapy of curative intent; or newly diagnosed metastatic disease that was asymptomatic and without visceral involvement. Additional inclusion criteria at screening included: eugonadal serum testosterone >150 ng/dl (5.2 nmol/L); serum PSA concentration >2 ng/ml (or, when applicable, >0.2 ng/ml following radical prostatectomy or >2 ng/mL above the post-radiotherapy nadir following radiotherapy); body mass index ≥18.0 at screening and/or baseline (i.e., the subject's BMI prior to treatment commencing); and Eastern Cooperative Oncology Group (ECOG) performance status of 0 or 1. Patients with advanced, localized MON1 or M1 disease with clinically significant symptoms or visceral involvement, who required immediate GnRH therapy, chemotherapy, or radiation therapy were not eligible for the trial.
PSA levels were measured at each visit.

FSH = assay: Example 8: FSH levels; type: in vivo, human; details: for FSH Mean (Std Dev) / FSH Median: Leuprorelin Q12W;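 as to all read-outs here: FSH determined at every study visit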
[1] = tested on: patients with advanced prostate cancer; assay: Example 8: quality of life, Aging Male Survey (AMS); type: in vivo, human; details: Leuprorelin Q12W
Procedure: Quality of life (QoL) was assessed throughout the study and the follow-up period. The 25-item Prostate Cancer Module of the European Organization for Research and Treatment of Cancer Quality of Life Questionnaire (EORTC QLQ-PR25), Aging Male Survey (AMS), and core 30-item EORTC Quality of Life Questionnaire (EORTC QLQ-C30) were completed at screening, day 1 of weeks 5, 13, 25, 37, and 49, and, if applicable, at the follow-up visits.

[2] = tested on: patients with advanced prostate cancer; assay: Example 8: treatment-emergent adverse events (safety population)
Procedure: The core tablets were coated with a film coating comprising hypromellose 2910 (21.36 mg), titanium dioxide (2.4 mg), and red ferric oxide (0.06 mg).
For patients receiving leuprolide acetate (leuprorelin), on-treatment study visits occurred at baseline (day 1, week 1), day 1 of weeks 2, 3, and 5, and then every 4 weeks until week 25, and then at 12 week intervals (week 37 and 49). Patients on leuprorelin received their final injection at week 37, day 1, and the week 49, day 1 visit was considered the end of leuprorelin exposure. Patients receiving leuprorelin at visits at 16 (EOT), 20 (follow-up visit), and 24 (EOS) weeks after the last leuprorelin injection.
Efficacy and safety analyses were conducted using a safety population (received ≥1 dose of study drug). […] Safety was assessed by recording the incidence, severity, and types of treatment-emergent adverse events; by physical examination (including slit lamp examination of the anterior eye); and by evaluating changes from baseline in weight, vital signs, 12-lead electrocardiogram (ECG), and clinical laboratory parameters. […] Adverse events were coded using the Medical Dictionary for Regulatory Activities version 19.0 and graded according to National Cancer Institute Common Terminology Criteria version 4.03 (Tables 7 and 8). Safety-related haematology, chemistry, and urinalysis measurements were taken at each study visit and analysed at a central laboratory (LabCorp). Phospholipidosis was assessed as part of the safety assessments.

CCNC(=O)[C@@H]1CCCN1C(=O)[C@H](CCCNC(=N)N)NC(=O)[C@H](CC(C)C)NC(=O)[C@@H](CC(C)C)NC(=O)[C@H](Cc1ccc(O)cc1)NC(=O)[C@H](CO)NC(=O)[C@H](Cc1c[nH]c2ccccc12)NC(=O)[C@H](Cc1c[nH]cn1)NC(=O)[C@@H]1CCC(=O)N1 [Leuprorelin, leuprolide acetate]
Testosterone Mean (Std Dev) (serum testosterone; Baseline): 11.363 (5,0204) nmol/L | Testosterone Median (serum testosterone; Baseline): 11.120 nmol/L | Median testosterone (serum testosterone; EOS): 13.5 ng/dL | Median testosterone (serum testosterone; EOT): 9.8 ng/dL | Testosterone Mean (Std Dev) (serum testosterone; End of Study): 1.695 (3.0345) nmol/L | Testosterone Median (serum testosterone; End of Study): 0.470 nmol/L | Testosterone Mean (Std Dev) (serum testosterone; End of Treatment): 0.641 (0.9616) nmol/L | Testosterone Median (serum testosterone; End of Treatment): 0.340 nmol/L | Testosterone Mean (Std Dev) (serum testosterone; Follow-Up): 0.992 (2.2948) nmol/L | Testosterone Median (serum testosterone; Follow-Up): 0.340 nmol/L | Median testosterone (serum testosterone; Follow-up visit): 9.8 ng/dL | Testosterone Mean (Std Dev) (serum testosterone; Week 49, Day 1): 0.478 (0.6313) nmol/L | Testosterone Median (serum testosterone; Week 49, Day 1): 0.300 nmol/L | course of serum testosterone levels (serum testosterone; leuprolide acetate 22.5 mg SC): rose during the first 1-2 weeks of therapy then declined to castration levels by Week 5 Day 1; also recorded: rose during the first 1 to 2 weeks of therapy then declined to castrate levels by Week 5 Day 1 | Median time from first dose to PSA nadir (PSA; Leuprolide Q12W): 20.5 Weeks | patients with ≥50% serum PSA reduction (PSA; after 4 weeks of treatment): 20% | patients with ≥90% serum PSA reduction (PSA; after 4 weeks of treatment): 0% | FSH Mean (Std Dev) (FSH; Baseline): 19.688 (19.1894) IU/L | FSH Median (FSH; Baseline): 14.500 IU/L | FSH Mean (Std Dev) (FSH; Week 2, Day 1): 7.650 (5.4542) IU/L | FSH Median (FSH; Week 2, Day 1): 5.150 IU/L | FSH Mean (Std Dev) (FSH; Week 5, Day 1): 2.946 (1.4428) IU/L | FSH Median (FSH; Week 5, Day 1): 2.550 IU/L | FSH Mean (Std Dev) (FSH; Week 13, Day 1): 4.625 (2.5594) IU/L | FSH Median (FSH; Week 13, Day 1): 3.600 IU/L | FSH Mean (Std Dev) (FSH; Week 25, Day 1): 5.043 (2.8221) IU/L | FSH Median (FSH; Week 25, Day 1): 4.400 IU/L | FSH Mean (Std Dev) (FSH; Week 49, Day 1): 5.145 (2.8201) IU/L | FSH Median (FSH; Week 49, Day 1): 4.250 IU/L | median FSH (FSH; after 48 weeks of treatment): ~4.2 mIU/mL | AMS total score, mean ([1]; Baseline): 28.3 | AMS total score after treatment, mean (95% CI) percent change from baseline ([1]; EOS): 49.9 (21.0-78.7) % | AMS total score after treatment, mean (95% CI) percent change from baseline ([1]; EOT): 61.0 (22.7-99.2) % | AMS total score after treatment, mean (95% CI) percent change from baseline ([1]; Follow-up): 53.8 (18.2-89.4) % | AMS total score, mean percent change from baseline ([1]; W5, D1): 10.1% | AMS total score, mean percent change from baseline ([1]; W13, D1): 21.9% | AMS total score, mean percent change from baseline ([1]; W25, D1): 47.0% | AMS total score, mean percent change from baseline ([1]; W37, D1): 49.4% | AMS total score, mean percent change from baseline ([1]; W49, D1): 60.0% | Cerebral haemorrhage, Grade ≥3 ([2]; Leuprorelin Q12W): 0 n (%) | Cerebrovascular accident, Grade ≥3 ([2]; Leuprorelin Q12W): 0 n (%) | Death (Table 7) ([2]; Leuprorelin Q12W): 1 (4) n (%) | Death, Grade ≥3 (Table 8) ([2]; Leuprorelin Q12W): 0 n (%) | Musculoskeletal pain, Grade ≥3 ([2]; Leuprorelin Q12W): 0 n (%) | Sudden death, Grade ≥3 ([2]; Leuprorelin Q12W): 0 n (%) | Acute coronary syndrome, Grade ≥3 ([2]; in vivo): 0 n (%) | Adverse event resulting in study drug discontinuation ([2]; in vivo): 0 n (%) | Alanine aminotransferase increased, Grade ≥3 ([2]; in vivo): 0 n (%) | Any adverse event ([2]; in vivo): 23 (96) n (%) | Arthralgia, Grade ≥3 (Table 8) ([2]; in vivo): 0 n (%) | Aspartate aminotransferase increased, Grade ≥3 ([2]; in vivo): 0 n (%) | Atrial flutter, Grade ≥3 ([2]; in vivo): 0 n (%) | Bladder cancer, Grade ≥3 ([2]; in vivo): 0 n (%) | Cervical vertebral fracture, Grade ≥3 ([2]; in vivo): 0 n (%) | Diabetes mellitus, Grade ≥3 ([2]; in vivo): 1 (4) n (%) | Drug-related adverse event ([2]; in vivo): 18 (75) n (%) | Fatigue, Grade ≥3 (Table 8) ([2]; in vivo): 0 n (%) | Gamma-glutamyltransferase increased, Grade ≥3 ([2]; in vivo): 0 n (%) | Grade ≥3 adverse event (Table 7) ([2]; in vivo): 2 (8) n (%) | Hypercalcaemia, Grade ≥3 ([2]; in vivo): 0 n (%) | Hypertension, Grade ≥3 ([2]; in vivo): 0 n (%) | Hypotension, Grade ≥3 ([2]; in vivo): 0 n (%) | Inguinal hernia, Grade ≥3 ([2]; in vivo): 0 n (%) | Joint dislocation, Grade ≥3 ([2]; in vivo): 0 n (%) | Metastases to bone, Grade ≥3 ([2]; in vivo): 0 n (%) | Myocardial infarction, Grade ≥3 ([2]; in vivo): 1 (4) n (%) | Non-cardiac chest pain, Grade ≥3 ([2]; in vivo): 0 n (%) | Osteoarthritis, Grade ≥3 ([2]; in vivo): 0 n (%) | Patients with at least 1 Grade ≥3 adverse events (Table 8) ([2]; in vivo): 2 (8) n (%) | Procedural pain, Grade ≥3 ([2]; in vivo): 0 n (%) | Sepsis, Grade ≥3 ([2]; in vivo): 0 n (%) | Serious adverse event ([2]; in vivo): 2 (8) n (%) | Syncope, Grade ≥3 ([2]; in vivo): 0 n (%) | Transient ischaemic attack, Grade ≥3 ([2]; in vivo): 0 n (%) | Urinary tract infection, Grade ≥3 ([2]; in vivo): 0 n (%) | hot flush (most common adverse event), patients ([2]; in vivo): 15 (63%) n (%)
